Laboratory results reported in patent US5798392A, “Sulfonyl fluorides for the treatment of Alzheimer's disease” (The Board of Regents of the University of Texas System, priority 1996, dated 1998).
Entries after “also recorded” stand apart in the source; their conditions may differ.

What was measured:
[1] = molecular target: T1, erythrocyte acetylcholinesterase (Homo sapiens, UniProt P22303); test: Erythrocyte acetylcholinesterase substrate kinetics; assay type: biochemical
[2] = tested on: brain acetylcholinesterase; test: Brain acetylcholinesterase inhibition in rodents and monkeys; parameters: species or system rodent and monkey; details: monkey, in vivo
[3] = tested on: patients suffering from SDAT; test: ADAS-COG cognitive performance, Experiment III double blind crossover; assay type: in vivo, human
animal memory = details: minimum of 50% inhibition; without toxicity; cited from earlier work
[4] = Chemical stability and solubility
[5] = tested on: patients suffering from SDAT; test: Clinical Interview Based Impression of Change (CIBIC), Experiment III; assay type: in vivo, human; details: end of 16 week protocol; baseline 4.0; p<0.01 t-test one-tailed; spread SD
acetylcholinesterase [6] = test: Reaction with acetylcholinesterase in brain membranes in vitro; assay type: biochemical; details: solubilized in brain membranes, after removal from aqueous environment
[7] = Experiment III, safety in patients suffering from SDAT
rats and monkeys = test: Pharmacological activity after intramuscular injection in oil vehicle; assay type: in vivo; details: i.m., sterile oil vehicle
[8] = Experiment II, Phase I tolerability in 10 normal subjects
acetylcholinesterase [9] = details: cited from earlier work
[10] = molecular target: T1, erythrocyte acetylcholinesterase; test: Erythrocyte acetylcholinesterase inhibition in blood after oral dosing of humans (Ellman assay); assay type: in vivo
[11] = Concentration in peripheral blood; details: in vivo
[12] = molecular target: plasma butyrylcholinesterase (Homo sapiens, UniProt P06276); test: Plasma butyrylcholinesterase inhibition in blood after oral dosing (Experiment I); assay type: in vivo; details: oral doses
[13] = Experiment I, side effects and clinical blood analyses in one normal volunteer; details: 0.016-0.22 mg/kg oral
[14] = tested on: brain acetylcholinesterase; details: rodent and monkey brain; accumulated, small doses over a long period of time; up to; cited from earlier work
[15] = tested on: patients suffering from SDAT; test: Global Deterioration Scale, Experiment III; assay type: in vivo, human
[16] = tested on: patients suffering from SDAT; test: Mini Mental State Exam, Experiment III double blind crossover; assay type: in vivo, human; details: p<0.01 one-tailed, paired t-test and Wilcoxon
SDAT patients = details: cited from earlier work
[17] = Prior tacrine treatment of two patients
[18] = acetyl-β-methylthiocholine substrate, pH 7.4, 25° C

T1 sequence (P22303 32-574): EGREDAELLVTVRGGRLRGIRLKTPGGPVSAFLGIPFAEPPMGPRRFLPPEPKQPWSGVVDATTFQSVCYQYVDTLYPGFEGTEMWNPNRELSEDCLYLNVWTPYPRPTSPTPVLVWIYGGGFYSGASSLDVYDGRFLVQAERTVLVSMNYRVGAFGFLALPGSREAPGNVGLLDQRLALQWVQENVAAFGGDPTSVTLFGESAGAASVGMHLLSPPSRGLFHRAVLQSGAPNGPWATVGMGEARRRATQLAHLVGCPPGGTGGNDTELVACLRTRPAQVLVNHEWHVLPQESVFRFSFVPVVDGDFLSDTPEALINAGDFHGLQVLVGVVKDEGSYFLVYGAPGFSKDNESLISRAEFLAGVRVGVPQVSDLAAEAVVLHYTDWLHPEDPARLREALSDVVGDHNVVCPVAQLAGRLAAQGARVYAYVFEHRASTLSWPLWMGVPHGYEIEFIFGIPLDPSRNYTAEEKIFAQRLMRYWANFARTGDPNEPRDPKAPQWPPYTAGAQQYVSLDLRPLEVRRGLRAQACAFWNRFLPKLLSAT
Sequence of plasma butyrylcholinesterase (P06276 29-602): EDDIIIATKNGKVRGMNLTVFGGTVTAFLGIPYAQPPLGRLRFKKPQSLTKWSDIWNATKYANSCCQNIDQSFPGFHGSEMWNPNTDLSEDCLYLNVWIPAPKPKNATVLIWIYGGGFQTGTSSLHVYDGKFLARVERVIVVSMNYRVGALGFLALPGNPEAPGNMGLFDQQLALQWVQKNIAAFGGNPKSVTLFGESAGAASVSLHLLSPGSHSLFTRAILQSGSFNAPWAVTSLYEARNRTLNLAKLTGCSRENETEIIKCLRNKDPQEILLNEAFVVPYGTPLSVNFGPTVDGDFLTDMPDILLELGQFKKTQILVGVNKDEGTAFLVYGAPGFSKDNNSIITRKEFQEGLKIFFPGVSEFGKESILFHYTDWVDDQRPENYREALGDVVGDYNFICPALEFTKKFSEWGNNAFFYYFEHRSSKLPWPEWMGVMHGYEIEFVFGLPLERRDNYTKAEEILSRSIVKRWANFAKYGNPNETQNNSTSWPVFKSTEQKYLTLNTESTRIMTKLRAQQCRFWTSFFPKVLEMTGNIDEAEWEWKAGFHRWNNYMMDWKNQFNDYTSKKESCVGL

## CC(=O)SC(C)C[N+](C)(C)C (stereo not drawn) [acetyl-β-methylthiocholine]
[1]; 1.0 mM substrate, approximately 10 times Km, without substrate inhibition
  percent of Vmax produced by substrate concentration: about 91%
[1]; [18]
  Acetylcholinesterase Vmax: 9.2552 (SEM=0.6386) ×10-6 moles/gram of erythrocytes/min
  erythrocyte acetylcholinesterase Vmax: 9.2552 (SEM=0.6386) ×10^-6 moles/gm/min

## CS(=O)(=O)F [methanesulfonyl fluoride]
[2]
  inhibition in brain versus peripheral tissues: much more inhibition in brain than peripheral tissues
[3]; 6 point reduction from 30 errors
  percent improvement on the ADAS-COG: 20%
[3]; Experiment III, mean of 30 errors at beginning
  mean improvement on the ADAS-COG: 6 points
[3]; FIG. 7, during methanesulfonyl fluoride treatment
  cognitive performance (reduction in errors on the ADAS-COG): substantial improvement of cognitive performance
[3]; after/through 8 weeks of placebo treatment
  duration of improvement after treatment: still clearly present after 8 weeks of placebo treatment; also recorded: maintained through 8 weeks of placebo
[3]; in vivo
  efficacy compared with tacrine in enhancing cognitive functions in SDAT: significantly greater efficacy than tacrine
[3]; methanesulfonyl fluoride first, then placebo
  improvement on ADAS-COG maintained throughout 8 additional weeks of placebo: about 6 points
[3]; p<0.01 one-tailed, paired t-test and Wilcoxon
  ADAS-COG change in 8 weeks compared to placebo: significant improvement compared to the placebo
[3]; p<0.05, N=15
  correlation of ADAS-COG improvement with baseline ADAS-COG errors: +0.6
Animal memory
  enhancement of animal memory: strong methanesulfonyl fluoride-induced enhancement of animal memory without toxicity
[4]; lipids
  solubility in lipids: highly soluble in lipids
[4]; water solutions
  chemical stability in water solutions: would degrade in water solutions
[5]
  mean CIBIC: 2.98 (SD=1.13)
Acetylcholinesterase [6]
  continued reaction against acetylcholinesterase: continues to react against acetylcholinesterase even after it is removed from the aqueous environment of the membranes in vitro
[7]; 0.14 mg/kg, first 7 patients
  adverse events: no adverse events
[7]; Experiment III
  clinical blood profiles, especially transaminases: no changes in clinical blood profiles
  nausea, vomiting, diarrhea, or other cholinergic side effects: no patients suffered
  signs of toxicity at the doses used: no signs of methanesulfonyl fluoride toxicity
[7]; Experiment III, 0.14-0.18 mg/kg
  adverse events related to drug treatment: no adverse events
[7]; Experiment III, 21 enrolled, 15 completed
  patients leaving the protocol because of a drug-related adverse event: No patients
[7]; doses sufficient for treatment of dementia
  peripheral cholinergic or other toxic effects: not accompanied by peripheral cholinergic or other toxic effects
[7]; patients, up to 8 weeks, 85-90% inhibition of erythrocyte acetylcholinesterase
  hematocrit changes: no changes in hematocrit
[7]; two patients with prior tacrine adverse effects
  adverse events in patients with known tacrine sensitivity: Neither of these patients with known sensitivities experienced adverse events
Rats and monkeys
  pharmacological activity if injected intramuscularly: pharmacologically active
[8]; 0.03-0.18 mg/kg oral, Experiment II
  tolerability: All doses used were tolerated well
[8]; Experiments I and II
  safety at range of doses expected to produce a therapeutic effect: safe at the range of doses expected to produce a therapeutic effect
[8]; oral, Experiment II
  oral absorption: consistently absorbed after oral administration
Acetylcholinesterase [9]
  mechanism and duration of acetylcholinesterase inhibition: long-acting irreversible inhibitor of acetylcholinesterase
  selectivity for acetylcholinesterase in comparison to butyrylcholinesterase: high selectivity
[10]; 0.14 mg/kg oral three times per week, Experiment III, spread SEM in %
  inhibition at 0.14 mg/kg: 85.3%
[10]; 0.18 mg/kg oral three times per week, Experiment III, spread SEM in %
  inhibition at 0.18 mg/kg: 89.5%
[10]; 18% inhibition of remaining active enzyme per dose, Experiment I
  estimated minimum therapeutic dose: 0.11 mg/kg
[10]; 18% inhibition of remaining enzyme, three times per week, Experiments I and II
  refined estimation of the (minimum) therapeutic dose: 0.14 mg/kg
[10]; Experiment II, FIG. 6, least squares linear regression
  dose-response correlation r: +0.8956
[10]; Experiment II, FIG. 6, oral
  dose/response relationship: orderly and consistent dose/response relationship
[10]; Experiment II, oral
  dose required to produce 18% inhibition of acetylcholinesterase remaining active: 0.143 mg/kg
[10]; FIG. 4, Experiment I oral doses, versus plasma butyrylcholinesterase
  selectivity for erythrocyte acetylcholinesterase: strongly selective for erythrocyte acetylcholinesterase
[10]; FIG. 5, 80 days after treatment ceased
  recovery kinetics of erythrocyte acetylcholinesterase: follows pseudo-first order kinetics; also recorded: strictly linear plot of LOG10 [%INH] against time
[10]; FIG. 5, Experiment I, 80 days after last dose
  half-life for recovery of erythrocyte acetylcholinesterase: 43 days
[10]; oral, Experiment I, FIG. 1
  activity by oral administration (erythrocyte acetylcholinesterase inhibition): active by oral administration
[10]; oral, Experiment I, FIG. 1, one observation at each dose
  dose-response of erythrocyte acetylcholinesterase inhibition: orderly dose-response curve
[10]; patients treated up to 8 weeks
  inhibition of erythrocyte acetylcholinesterase: 85-90%
[10]; recovery of erythrocyte acetylcholinesterase, FIG. 5, least squares linear regression
  correlation coefficient r, LOG10 [% inhibition] against time: -0.9254
[11]
  concentration in the peripheral blood: drops within hours
[12]
  inhibition of plasma butyrylcholinesterase: virtually no inhibition of plasma butyrylcholinesterase
[13]
  changes in the clinical blood analyses: no changes of any type in the clinical blood analyses
  cholinergic effects (e.g., diarrhea, vomiting, nausea): no cholinergic effects
[14]
  inhibition of brain acetylcholinesterase: 80-90%
[15]; 16 weeks versus baseline, p<0.01 t-test one-tailed, spread SEM
  mean improvement in Global Deterioration Score: 1.3 (SEM=0.33)
[15]; end of 16 week protocol, baseline 4.4 (SEM=0.21)
  mean Global Deterioration Score at the end of the protocol: 3.1
[16]
  Mini-Mental State score change in 8 weeks compared to placebo: significant improvement compared to the placebo

## COP(=O)(OC)C(O)C(Cl)(Cl)Cl (centres unmarked) [metrifonate, reference compound]
Acetylcholinesterase [9]
  selectivity for acetylcholinesterase in comparison to butyrylcholinesterase: do not show this high degree of selectivity

## CNC(=O)Oc1ccc2c(c1)[C@]1(C)CCN(C)[C@@H]1N2C [physostigmine, reference compound]
Acetylcholinesterase [9]
  selectivity for acetylcholinesterase in comparison to butyrylcholinesterase: do not show this high degree of selectivity

## Nc1c2c(nc3ccccc13)CCCC2 [tacrine]
SDAT patients; high dose tacrine, patients who could tolerate
  mean improvement on the ADAS-COG: 2 points
SDAT patients; high dose tacrine
  patients who could tolerate: 40%
  patients who failed to complete the protocol because of drug-related adverse events: about 60%
SDAT patients; in vivo
  adverse events related to treatment: cholinergic side effects (nausea, vomiting, diarrhea, etc.) and liver toxicity
[17]; one patient each
  prior adverse effects: liver toxicity; also recorded: vomiting
[17]; one patient, an ineffective dose
  highest tolerated dose (limited by vomiting): 60 mg/day
